Legend:
[1] = biological target: T1, c-KIT V654A kinase (Homo sapiens, UniProt P10721, V654A); experiment: c-KIT V654A Kinase Assay; type: biochemical; conditions: enzymatic assay, ATP 200 µM
T1 construct: residues T544-V976 with N-terminal GST fusion; purchased deCODE Biostructures
Method in brief: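 Construct: cKIT residues T544–V976 with N-terminal tag, GST fusion and TEV site. Reaction started by adding serially diluted compound to the enzyme mixture; NADH oxidation, coupled to kinase turnover, followed as the decrease in A340 for 6 h at 30 °C.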

[2] = biological target: T2, c-KIT D816H kinase (Homo sapiens, UniProt P10721, D816H); experiment: c-KIT D816H Kinase Assay; type: biochemical; conditions: enzymatic assay, ATP 200 µM
T2 construct: The construct contains residues T544-V976 of cKit; GST (N); TEV cleavage site (internal); purchased deCODE Biostructures
Method in brief: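 Coupled spectrophotometric assay following NADH oxidation as absorbance decrease at 340 nm, monitored continuously for 6 hours at 30 °C after adding serially diluted compound. Enzyme: mutant cKit construct with N-terminal tag, GST fusion and TEV cleavage site.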

[3] = biological target: T3, c-KIT D816V kinase (Homo sapiens, UniProt P10721, D816V); experiment: c-KIT D816V kinase Assay; type: biochemical; conditions: enzymatic assay, ATP 200 uM
T3 construct: residues T544-V976 with N-terminal GST fusion; purchased deCODE Biostructures
Method in brief: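 Coupled assay in which NADH oxidation was tracked as decreasing absorbance at 340 nm, continuously for 5 hours at 30 °C after adding serially diluted compound. Enzyme: cKit residues T544-V976 with N-terminal tag, GST fusion and TEV cleavage site.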

[4] = biological target: T4, c-KIT T670I kinase (Homo sapiens, UniProt P10721, T670I); experiment: c-KIT T670I kinase assay; type: biochemical; conditions: enzymatic assay
T4 construct: The construct contains residues T544-V976 of cKit; GST (N); TEV cleavage site (internal); purchased deCODE Biostructures
Method in brief: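 Coupled spectrophotometric assay following NADH oxidation as absorbance decrease at 340 nm, monitored continuously for 5 h at 30 °C after adding serially diluted compound. Enzyme is a cKit construct with N-terminal tag, GST fusion and TEV site, carrying the T670I mutation.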

[5] = tested on: Phospho-KIT (Tyr719); experiment: GIST48 KIT Western Blot; type: cell-based; conditions: GIST48 cells, 4 hours, serum-free medium; read-out: pKIT suppression by western blot analysi GIST48
Method in brief: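 Phospho-KIT (Tyr719) was immunoblotted on PVDF and imaged in fluorescence mode after ECL Plus, with stripping and reprobing for total KIT. IC50 values were derived from the blot signals.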

[6] = biological target: T5, Phospho-KIT (Tyr719) (Homo sapiens, UniProt P10721, K642E); experiment: GIST882 KIT Western Blot; type: cell-based; conditions: GIST882 cells, 4 hours, serum-free medium; read-out: pKIT suppression by western blot analysi GIST 882
T5 construct: endogenous in cells; host or cells: GIST882
Protocol: GIST48, GIST430, and GIST882 cells were obtained from J. Fletcher (Brigham and Women's Hospital, Boston, MA). GIST T1 cells were obtained from B. Rubin (Cleveland Clinic, Cleveland, OH) and Professor Takahiro Taguchi (Kochi Medical School, Nankoku, Kochi, Japan). […] GIST430 cells were grown in Ham's F10 medium supplemented with 15% characterized fetal bovine serum (Invitrogen, Carlsbad, CA), 30 mg/L bovine pituitary extract (BD Biosciences, San Jose, CA), 0.5% Mito+ serum extender (BD Biosciences, San Jose, CA), 1 unit/mL penicillin G, 1 µg/ml streptomycin, and 0.29 mg/mL L-glutamine at 37 °C, 5%CO2, 95% humidity. GIST T1 cells were grown in DMEM medium supplemented with 10% characterized fetal bovine serum (Invitrogen, Carlsbad, CA), 1 unit/mL penicillin G, 1 µg/ml streptomycin, and 0.29 mg/mL L-glutamine at 37 °C, 5% CO2, and 95% humidity.
Two hundred fifty thousand cells were added per well in a 24-well tissue-culture treated plate. […] Medium was aspirated, cells were washed with PBS, and serum-free RPMI1640 medium was added. […] Cells were washed with PBS, then lysed. Cell lysates were separated by SDS-PAGE and transferred to PVDF. Phospho-KIT (Tyr719) was detected using an antibody from Cell Signaling Technology (Beverly, MA), ECL Plus detection reagent (GE Healthcare, Piscataway, NJ) and a Molecular Devices Storm 840 phosphorimager in fluorescence mode. Blots were stripped and probed for total KIT using an antibody from Santa Cruz Biotech (Santa Cruz, CA). IC50 values were calculated using Prism software (Graphpad, San Diego, CA).

[7] = biological target: c-KIT kinase (Homo sapiens, UniProt P10721); experiment: c-KIT kinase Assay; type: biochemical; design: cKIT residues T544-V976; GST (N); TEV cleavage site (internal); purchased deCODE Biostructures; conditions: enzymatic assay, ATP 200 µM; read-out: KIT (wt) IC50
Method in brief: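 Activity of wild-type human c-KIT kinase was followed as NADH oxidation, read as falling absorbance at 340 nm on a Synergy 2 plate reader (BioTeK) for 2 hours at 30 °C. Rates from the 0 to 1 h window were compared with an uninhibited control to give percent inhibition. IC50 values were fitted in GraphPad Prism across a range of inhibitor concentrations.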

T3 sequence (P10721 544-976 D816V): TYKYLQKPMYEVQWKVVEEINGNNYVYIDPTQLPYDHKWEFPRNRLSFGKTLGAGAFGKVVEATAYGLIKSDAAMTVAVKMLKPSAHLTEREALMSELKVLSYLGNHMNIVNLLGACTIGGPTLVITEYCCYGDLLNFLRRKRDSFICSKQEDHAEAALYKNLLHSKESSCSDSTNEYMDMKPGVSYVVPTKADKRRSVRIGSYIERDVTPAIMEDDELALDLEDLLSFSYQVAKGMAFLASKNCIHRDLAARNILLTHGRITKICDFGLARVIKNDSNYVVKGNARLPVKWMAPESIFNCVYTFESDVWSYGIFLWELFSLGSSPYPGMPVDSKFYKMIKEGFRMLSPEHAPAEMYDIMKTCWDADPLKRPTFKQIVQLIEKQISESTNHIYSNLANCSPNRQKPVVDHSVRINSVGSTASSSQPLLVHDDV
Chain of c-KIT kinase (P10721 544-976): as the sequence (P10721 544-976 D816V) above, with V273D counted along it
T4 sequence (P10721 544-976 T670I): as the sequence (P10721 544-976 D816V) above, with T127I, V273D counted along it
T5 sequence (P10721 26-976 K642E): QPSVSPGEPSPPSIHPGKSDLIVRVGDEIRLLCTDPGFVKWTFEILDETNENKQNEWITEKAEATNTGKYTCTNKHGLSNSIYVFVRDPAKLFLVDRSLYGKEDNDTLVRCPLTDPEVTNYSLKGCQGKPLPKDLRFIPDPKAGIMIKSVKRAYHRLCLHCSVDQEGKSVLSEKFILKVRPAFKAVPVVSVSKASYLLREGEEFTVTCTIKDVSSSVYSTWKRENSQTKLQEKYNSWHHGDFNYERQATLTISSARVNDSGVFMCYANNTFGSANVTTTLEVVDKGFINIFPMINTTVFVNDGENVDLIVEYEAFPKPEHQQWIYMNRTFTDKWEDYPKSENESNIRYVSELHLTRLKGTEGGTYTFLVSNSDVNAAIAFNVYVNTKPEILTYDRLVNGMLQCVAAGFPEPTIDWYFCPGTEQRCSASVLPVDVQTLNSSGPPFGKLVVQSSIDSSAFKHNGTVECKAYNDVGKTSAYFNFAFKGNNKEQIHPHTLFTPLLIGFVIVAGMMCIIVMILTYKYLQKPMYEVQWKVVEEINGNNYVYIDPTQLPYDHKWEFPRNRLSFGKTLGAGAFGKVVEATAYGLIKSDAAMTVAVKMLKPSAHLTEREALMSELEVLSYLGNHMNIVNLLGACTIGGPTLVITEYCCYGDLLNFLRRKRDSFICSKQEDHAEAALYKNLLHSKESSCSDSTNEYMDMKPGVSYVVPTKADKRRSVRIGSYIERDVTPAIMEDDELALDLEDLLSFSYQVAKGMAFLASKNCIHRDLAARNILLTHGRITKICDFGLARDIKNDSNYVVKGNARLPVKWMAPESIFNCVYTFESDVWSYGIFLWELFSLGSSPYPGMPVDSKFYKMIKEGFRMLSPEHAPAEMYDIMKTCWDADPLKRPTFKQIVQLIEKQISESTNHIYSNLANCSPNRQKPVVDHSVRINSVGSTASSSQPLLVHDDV
T2 sequence (P10721 544-976 D816H): as the sequence (P10721 544-976 D816V) above, with V273H counted along it
T1 sequence (P10721 544-976 V654A): as the sequence (P10721 544-976 D816V) above, with V111A, V273D counted along it

Structure (SMILES)	IC50 [1]	IC50 [2]	IC50 [3]	IC50 [4]	IC50 [5]	IC50 [6]	IC50 [7]
CCn1c(=O)c(-c2cc(NC(=O)Nc3ccccc3)c(F)cc2Cl)cc2cnc(NC)cc21 [Example 3, 1-(4-chloro-5-(1-ethyl-7-(methylamino)-2-oxo-1,2-dihydro-1,6-naphthyridin-3-yl)-2-fluorophenyl)-3-phenylurea]	< 10 nM	< 10 nM	10 to 100 nM	10 to 100 nM	100 to 1000 nM	10 to 100 nM	< 10 nM
CCn1c(=O)c(-c2cc(NC(=O)Nc3cccc(F)c3F)c(F)cc2Cl)cc2cnc(NC)cc21 [Example 4, 1-(4-chloro-5-(1-ethyl-7-(methylamino)-2-oxo-1,2-dihydro-1,6-naphthyridin-3-yl)-2-fluorophenyl)-3-(2,3-difluorophenyl)urea]	< 10 nM	< 10 nM	10 to 100 nM	10 to 100 nM	10 to 100 nM	< 10 nM	< 10 nM
CCn1c(=O)c(-c2cc(NC(=O)Nc3cccc4ccccc34)c(F)cc2Cl)cc2cnc(NC)cc21 [Example 6, 1-(4-chloro-5-(1-ethyl-7-(methylamino)-2-oxo-1,2-dihydro-1,6-naphthyridin-3-yl)-2-fluorophenyl)-3-(naphthalen-1-yl)urea]	10 to 100 nM	10 to 100 nM	10 to 100 nM	< 10 nM	< 10 nM	10 to 100 nM	< 10 nM
CCn1c(=O)c(-c2cc(NC(=O)Nc3cccc(F)c3)c(F)cc2Cl)cc2cnc(N)cc21 [Example 20, 1-(5-(7-amino-1-ethyl-2-oxo-1,2-dihydro-1,6-naphthyridin-3-yl)-4-chloro-2-fluorophenyl)-3-(3-fluorophenyl)urea]	10 to 100 nM	< 10 nM	< 10 nM	< 10 nM	100 to 1000 nM	10 to 100 nM	< 10 nM
CNc1cc2c(cn1)cc(-c1cc(NC(=O)Nc3ccccc3)c(F)cc1Cl)c(=O)n2C(C)C [Example 22, 1-(4-chloro-2-fluoro-5-(1-isopropyl-7-(methylamino)-2-oxo-1,2-dihydro-1,6-naphthyridin-3-yl)phenyl)-3-phenylurea]	10 to 100 nM	10 to 100 nM	< 10 nM	100 to 1000 nM	10 to 100 nM	10 to 100 nM	< 10 nM
CCn1c(=O)c(-c2cc(NC(=O)Nc3ccccc3)c(F)cc2C)cc2cnc(NC)cc21 [Example 23, 1-(5-(1-ethyl-7-(methylamino)-2-oxo-1,2-dihydro-1,6-naphthyridin-3-yl)-2-fluoro-4-methylphenyl)-3-phenylurea]	< 10 nM	10 to 100 nM	10 to 100 nM	10 to 100 nM	100 to 1000 nM	10 to 100 nM	< 10 nM
CCn1c(=O)c(-c2cc(NC(=O)Nc3cccc(F)c3)c(F)cc2Cl)cc2cnc(NC)cc21 [Example 24, 1-[4-chloro-5-(1-ethyl-7-methylamino-2-oxo-1,2-dihydro-[1,6]naphthyridin-3-yl)-2-fluoro-phenyl]-3-(3-fluoro-phenyl)-urea]	< 10 nM	< 10 nM	< 10 nM	< 10 nM	10 to 100 nM	10 to 100 nM	< 10 nM
CCn1c(=O)c(-c2cc(NC(=O)Nc3ccccc3F)c(F)cc2Cl)cc2cnc(NC)cc21 [Example 25, 1-[4-chloro-5-(1-ethyl-7-methylamino-2-oxo-1,2-dihydro-[1,6]naphthyridin-3-yl)-2-fluoro-phenyl]-3-(2-fluoro-phenyl)-urea]	< 10 nM	10 to 100 nM	10 to 100 nM	< 10 nM	10 to 100 nM	10 to 100 nM	< 10 nM
CCn1c(=O)c(-c2cc(NC(=O)Nc3ccccc3)c(F)cc2Cl)cc2cnc(NCCOC)cc21 [Example 27, 1-(4-chloro-5-(1-ethyl-7-(2-methoxyethylamino)-2-oxo-1,2-dihydro-1,6-naphthyridin-3-yl)-2-fluorophenyl)-3-phenylurea]	10 to 100 nM	10 to 100 nM	10 to 100 nM	10 to 100 nM	10 to 100 nM	100 to 1000 nM	< 10 nM
CCn1c(=O)c(-c2cc(NC(=O)Nc3cccc(F)c3)c(F)cc2Cl)cc2cnc(NCCOC)cc21 [Example 28, 1-(4-chloro-5-(1-ethyl-7-(2-methoxyethylamino)-2-oxo-1,2-dihydro-1,6-naphthyridin-3-yl)-2-fluorophenyl)-3-(3-fluorophenyl)urea]	< 10 nM	10 to 100 nM	10 to 100 nM	10 to 100 nM	100 to 1000 nM	10 to 100 nM	10 to 100 nM
CCn1c(=O)c(-c2cc(NC(=O)Nc3csc4ccccc34)c(F)cc2Cl)cc2cnc(NC)cc21 [Example 32, 1-(benzo[b]thiophen-3-yl)-3-(4-chloro-5-(1-ethyl-7-(methylamino)-2-oxo-1,2-dihydro-1,6-naphthyridin-3-yl)-2-fluorophenyl)urea]	10 to 100 nM	< 10 nM	< 10 nM	10 to 100 nM	< 10 nM	10 to 100 nM	< 10 nM
CCn1c(=O)c(-c2cc(NC(=O)Nc3ccccc3)c(F)cc2Br)cc2cnc(NCCOC)cc21 [Example 51, 1-(4-bromo-5-(1-ethyl-7-(2-methoxyethylamino)-2-oxo-1,2-dihydro-1,6-naphthyridin-3-yl)-2-fluorophenyl)-3-phenylurea]	10 to 100 nM	–	100 to 1000 nM	> 1000 nM	100 to 1000 nM	10 to 100 nM	10 to 100 nM
CCn1c(=O)c(-c2cc(NC(=O)Nc3cc(F)cc(F)c3)c(F)cc2C)cc2cnc(NC)cc21 [Example 60, 1-(3,5-difluorophenyl)-3-(5-(1-ethyl-7-(methylamino)-2-oxo-1,2-dihydro-1,6-naphthyridin-3-yl)-2-fluoro-4-methylphenyl)urea]	10 to 100 nM	10 to 100 nM	10 to 100 nM	100 to 1000 nM	> 1000 nM	–	< 10 nM
CCn1c(=O)c(-c2cc(NC(=O)Nc3cc(F)ccc3F)c(F)cc2C)cc2cnc(NC)cc21 [Example 61, 1-(2,5-difluorophenyl)-3-(5-(1-ethyl-7-(methylamino)-2-oxo-1,2-dihydro-1,6-naphthyridin-3-yl)-2-fluoro-4-methylphenyl)urea]	10 to 100 nM	100 to 1000 nM	10 to 100 nM	< 10 nM	> 1000 nM	–	< 10 nM
CCn1c(=O)c(-c2cc(NC(=O)Nc3ccccc3)c(F)cc2Cl)cc2cnc(NC(=O)N3CC(N(C)C)C3)cc21 [Example 102, N-(3-(2-chloro-4-fluoro-5-(3-phenylureido)phenyl)-1-ethyl-2-oxo-1,2-dihydro-1,6-naphthyridin-7-yl)-3-(dimethylamino)azetidine-1-carboxamide]	10 to 100 nM	10 to 100 nM	10 to 100 nM	10 to 100 nM	10 to 100 nM	–	< 10 nM
